Source: patent US20260226060A1, “SALTS AND CRYSTALLINE FORMS OF COMPOUND A, METHODS OF PREPARATION, AND USES THEREOF” (SHENZHEN NEWDEL BIOTECH CO., LTD., priority 2023, published 2026)
Like-named read-outs stand apart in the source and are kept apart here.

Experiments:
[1] = Solubility analysis in biological solvents (SGF, FaSSIF, FeSSIF) and water, with pH and XRPD of residual solid; assay type: physicochemical; details: for Solubility: 37° C., target 5 mg/mL
Method: (§1) HPLC analysis was performed by using an Agilent HPLC 1260 series instrument and the HPLC methods used for solubility and stability determinations were shown in Tables 33 and 34, respectively.

[2] = Dynamic vapor sorption (DVS) hygroscopicity; assay type: physicochemical
Method: The water vapor sorption/desorption data of the samples were collected on a dynamic vapor sorption instrument (proUmid GmbH & Co. KG, Germany). Approximately 50-70 mg of sample was placed in a sample pan previously tared and the weight of the sample was measured accurately.

[3] = Short-term physical stability of anhydrous crystal forms (40° C./75% RH, open, 1 day; XRPD); assay type: physicochemical
Source text: In addition to the mesylate crystalline form I, the other anhydrous crystalline forms were stable under high humidity conditions.

[4] = Polymorph screening: evaporating crystallization; assay type: physicochemical; details: for Results (quick volatilization −1 h) Wet sample: saturated solution (50° C. to room temperature)
[5] = Polymorph screening: antisolvent precipitation; assay type: physicochemical; details: for Results Wet sample: Vsolvent/Vanti-solvent 1/10
Method: An anti-solvent was gradually added thereto until a solid precipitated or a solvent volume of was added.

[6] = Polymorph screening: trituration for 3 or 7 days at room temperature or 50° C.; assay type: physicochemical
[7] = Tableting stability (40 Mpa, 1 min; XRPD); assay type: physicochemical
[8] = Solid state stability at 60° C. (closed) and 40° C./75% RH (open), XRPD and HPLC purity; assay type: physicochemical
Method: (closed) and 40° C./75 RH (open) for 14 days, XRPD analysis and purity analysis were performed at various points of time, and solid-state stability was evaluated.
as §1

physchem = details: water, thermodynamic from solid
[9] = Polymorph screening: cooling crystallization; assay type: physicochemical; details: for solid obtained by cooling crystallization: solution in methanol
Method: It was filtered through a microfilm into clear vials. The solution was divided into two equal parts, one part of filtrate was placed in a refrigerator (5° C.) for rapid cooling, and the other part of filtrate was placed in a heating metal module with a power off and naturally cooled to room temperature.

[10] = Mechanical grinding stability (XRPD); assay type: physicochemical; details: ground in a mortar 5 minutes, samples at 2 and 5 minutes
[11] = 60° C./closed and 40° C./75% RH, 7 days

Cc1c(C#Cc2cnc3ccc(N4CCC(O)CC4)nn23)cccc1C(=O)Nc1cc(Cl)cc(C(F)(F)F)c1 [Fumarate crystalline form I]
pH in solubility analysis ([1]; FaSSIF (medium pH 6.5), 0.5 h): 6.3 | pH in solubility analysis ([1]; FaSSIF (medium pH 6.5), 2 h): 6.2 | pH in solubility analysis ([1]; FaSSIF (medium pH 6.5), 24 h): 6.0 | XRPD of residual solid in solubility analysis ([1]; FaSSIF, 0.5 h): unchanged | Solubility ([1]; FaSSIF, 0.5 h): 0.011 mg/mL | Solubility ([1]; FaSSIF, 0.5 h, listed as fumarate crystalline form I): 0.011/0.011/ mg/mL | Solubility ([1]; FaSSIF, 2 h): 0.011 mg/mL | Solubility ([1]; FaSSIF, 2 h, listed as fumarate crystalline form I): 0.011/0.011/ mg/mL | XRPD of residual solid in solubility analysis ([1]; FaSSIF, 24 h): unchanged | Solubility ([1]; FaSSIF, 24 h): 0.022 mg/mL | pH in solubility analysis ([1]; FeSSIF (medium pH 5.0), 0.5 h): 5.0 | pH in solubility analysis ([1]; FeSSIF (medium pH 5.0), 2 h): 5.0 | pH in solubility analysis ([1]; FeSSIF (medium pH 5.0), 24 h): 5.0 | Solubility ([1]; FeSSIF, 0.5 h): 0.197 mg/mL | Solubility ([1]; FeSSIF, 0.5 h, listed as fumarate crystalline form I): 0.197 mg/mL | Solubility ([1]; FeSSIF, 2 h): 0.175 mg/mL | Solubility ([1]; FeSSIF, 2 h, listed as fumarate crystalline form I): 0.175 mg/mL | XRPD of residual solid in solubility analysis ([1]; FeSSIF, 24 h): unchanged | Solubility ([1]; FeSSIF, 24 h): 0.530 mg/mL | pH in solubility analysis ([1]; SGF (medium pH 1.2), 0.5 h): 1.3 | pH in solubility analysis ([1]; SGF (medium pH 1.2), 2 h): 1.4 | pH in solubility analysis ([1]; SGF (medium pH 1.2), 24 h): 1.3 | XRPD of residual solid in solubility analysis ([1]; SGF, 0.5 h): unchanged | Solubility ([1]; SGF, 0.5 h): <LOD | Solubility ([1]; SGF, 0.5 h, listed as fumarate crystalline form I): <LOD/<LOD/ | Solubility ([1]; SGF, 2 h): <LOD | Solubility ([1]; SGF, 2 h, listed as fumarate crystalline form I): <LOD/<LOD/ | XRPD of residual solid in solubility analysis ([1]; SGF, 24 h): unchanged | Solubility ([1]; SGF, 24 h): <LOD | Solid form of residual solids in solubility analysis ([1]; summary over water, SGF, FaSSIF, FeSSIF): remained unchanged | pH in solubility analysis ([1]; water (medium pH 6.6), 0.5 h): 4.6 | pH in solubility analysis ([1]; water (medium pH 6.6), 2 h): 4.3 | pH in solubility analysis ([1]; water (medium pH 6.6), 24 h): 4.2 | XRPD of residual solid in solubility analysis ([1]; water, 0.5 h): unchanged | Solubility ([1]; water, 0.5 h): <LOD | Solubility ([1]; water, 0.5 h, listed as fumarate crystalline form I): <LOD/<LOD/ | Solubility ([1]; water, 2 h): <LOD | Solubility ([1]; water, 2 h, listed as fumarate crystalline form I): <LOD/<LOD/ | XRPD of residual solid in solubility analysis ([1]; water, 24 h): unchanged | Solubility ([1]; water, 24 h): <LOD | crystalline form after DVS analysis (XRPD) [2]: remained unchanged | hygroscopicity (DVS) [2]: substantially non-hygroscopic | DVS The weight gains by vapor sorption % ([2]; 80% RH): 0.2, 0.2% | DVS The weight gains by vapor sorption % ([2]; 90% RH): 0.2, 0.2% | DVS The weight gains by vapor sorption % ([2]; 90% RH, listed as fumarate crystalline form I): 0.2/0.2% | hygroscopicity (DVS) ([2]; listed as fumarate crystalline form I): almost non-hygroscopic | hygroscopicity (DVS) ([2]; listed as fumarate form crystalline I): almost non-hygroscopic | XPRD Results after short-term physical stability [3]: unchanged | new crystalline form by evaporating crystallization (XRPD) ([4]; quick and slow evaporation): no new crystalline form was obtained | Results (quick volatilization −1 h) Wet sample ([4]; solvent EtOH, batch 071-A2): amorphous | Results (quick volatilization −1 h) Wet sample ([4]; solvent MeOH, batch 071-A1): free base form 1 | new crystalline form by antisolvent precipitation (XRPD) ([5]; from MeOH, THF or DMSO): no new crystalline form was obtained | Results Wet sample ([5]; solvent DMSO (100 mg/mL, 0.2 mL), anti-solvent EA, batch 073-C1): clear solution | Results Wet sample ([5]; solvent DMSO (100 mg/mL, 0.2 mL), anti-solvent IPAC, batch 073-C2): clear solution | Results Wet sample ([5]; solvent DMSO (100 mg/mL, 0.2 mL), anti-solvent MTBE, batch 073-C4): clear solution | Results Wet sample ([5]; solvent MeOH (Saturated, 0.3 mL), anti-solvent MTBE, batch 073-A2): clear solution | Results Wet sample ([5]; solvent THF (25 mg/mL, 0.4 mL), anti-solvent EA, batch 073-B1): clear solution | new crystalline form by trituration (XRPD) ([6]; 30 mg/mL suspension, room temperature or 50° C., 3 or 7 days): no new fumarate crystalline form was formed | dissociation on trituration ([6]; in alcohol, water, 2-Me-THF, MTBE and acetone): dissociated into free base crystalline form VII | crystalline form after tableting (XRPD) [7]: unchanged | crystallinity after tableting (XRPD) [7]: slightly reduced | Purity in stability evaluation ([8]; 0 d): 99.14 Area % | Solid state stability-14 days ([8]; 60° C./Closed and 40° C./75% RH (Open), 14 days): physically and chemically stable | change in crystalline form, 7 days [8, 11]: No change in crystalline form was observed | chemical purity, 7 days [8, 11]: remained unchanged | solid stability, 7 days [8, 11]: physicochemically stable | Purity in stability evaluation ([8]; 7 d-40° C./75% RH): 99.13 Area % | XRPD in stability evaluation ([8]; 7 d-40° C./75% RH): unchanged | Purity in stability evaluation ([8]; 7 d-60° C./capped): 99.14 Area % | XRPD in stability evaluation ([8]; 7 d-60° C./capped): unchanged | Purity in stability evaluation ([8]; 14 d-40° C./75% RH): 99.13 Area % | XRPD in stability evaluation ([8]; 14 d-40° C./75% RH): unchanged | Purity in stability evaluation ([8]; 14 d-60° C./capped): 99.13 Area % | XRPD in stability evaluation ([8]; 14 d-60° C./capped): unchanged | Solubility (physchem; Solubility): < 0.6 mg/mL | Solubility (physchem; solubility): < 5 mg/mL | new crystalline form by cooling crystallization (XRPD) [9]: no new crystalline form was obtained | solid obtained by cooling crystallization ([9]; rapid cooling (5° C.)): dissociated into free base form 1 | solid obtained by cooling crystallization ([9]; slow cooling to room temperature): into free base form 2 | crystal form after grinding (XRPD) [10]: not changed | crystallinity after grinding (XRPD) [10]: not obviously reduced
